The values that follow come from patent US10370360B2, “Small-molecule inhibitors targeting discoidin domain receptor 1 and uses thereof” (priority 2014, dated 2019).

Holding throughout (assay type): biochemical
One assay has as its target DDR1 (Homo sapiens (Human), UniProt Q08345). In words: LanthaScreen Eu kinase activity assay, DDR1. The following applies: 100 nM ATP. On the technique in general: Time-resolved FRET reads energy transfer from a long-lived donor to a nearby acceptor.
The next assay has as its target DDR2 (Homo sapiens (Human), UniProt Q16832). Nature of the assay: LanthaScreen Eu kinase activity assay, DDR2. The following applies: 100 nM ATP.
Another assay addresses Bcr-Abl. Nature of the assay: FRET-based Z'-Lyte kinase assay, Abl. To be noted: 10 μM ATP; cells printed in μM.
A further assay deals with c-Kit (Homo sapiens (Human), UniProt P10721). In words: FRET-based Z'-Lyte kinase assay, c-kit. The following applies: 300 μM ATP.
c-Kit, sequence (P10721 26-976): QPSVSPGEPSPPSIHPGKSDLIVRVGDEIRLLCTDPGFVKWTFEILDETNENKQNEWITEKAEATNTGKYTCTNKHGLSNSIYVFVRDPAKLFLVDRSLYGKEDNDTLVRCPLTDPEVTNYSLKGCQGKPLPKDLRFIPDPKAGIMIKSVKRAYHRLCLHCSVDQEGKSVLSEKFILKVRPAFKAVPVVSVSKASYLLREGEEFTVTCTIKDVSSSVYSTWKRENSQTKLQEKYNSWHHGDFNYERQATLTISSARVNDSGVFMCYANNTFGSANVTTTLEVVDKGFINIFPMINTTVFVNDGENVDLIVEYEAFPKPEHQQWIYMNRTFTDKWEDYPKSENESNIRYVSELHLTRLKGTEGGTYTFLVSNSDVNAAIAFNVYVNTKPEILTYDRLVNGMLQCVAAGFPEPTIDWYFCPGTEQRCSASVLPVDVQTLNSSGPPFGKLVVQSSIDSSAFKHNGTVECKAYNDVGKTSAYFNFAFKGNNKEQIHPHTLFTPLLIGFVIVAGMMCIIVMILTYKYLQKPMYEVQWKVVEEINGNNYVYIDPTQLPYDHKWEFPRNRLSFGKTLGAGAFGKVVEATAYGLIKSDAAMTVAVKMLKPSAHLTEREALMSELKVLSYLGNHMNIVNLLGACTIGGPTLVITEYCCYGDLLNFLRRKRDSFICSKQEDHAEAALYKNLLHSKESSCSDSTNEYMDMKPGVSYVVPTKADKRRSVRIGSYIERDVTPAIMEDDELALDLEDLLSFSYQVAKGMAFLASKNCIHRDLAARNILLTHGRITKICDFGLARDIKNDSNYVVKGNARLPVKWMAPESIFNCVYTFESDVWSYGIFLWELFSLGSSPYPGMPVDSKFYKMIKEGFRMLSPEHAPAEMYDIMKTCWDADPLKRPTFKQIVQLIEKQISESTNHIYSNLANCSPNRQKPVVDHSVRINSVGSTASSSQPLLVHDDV

Bcr-Abl, sequence (P00519 whole entry): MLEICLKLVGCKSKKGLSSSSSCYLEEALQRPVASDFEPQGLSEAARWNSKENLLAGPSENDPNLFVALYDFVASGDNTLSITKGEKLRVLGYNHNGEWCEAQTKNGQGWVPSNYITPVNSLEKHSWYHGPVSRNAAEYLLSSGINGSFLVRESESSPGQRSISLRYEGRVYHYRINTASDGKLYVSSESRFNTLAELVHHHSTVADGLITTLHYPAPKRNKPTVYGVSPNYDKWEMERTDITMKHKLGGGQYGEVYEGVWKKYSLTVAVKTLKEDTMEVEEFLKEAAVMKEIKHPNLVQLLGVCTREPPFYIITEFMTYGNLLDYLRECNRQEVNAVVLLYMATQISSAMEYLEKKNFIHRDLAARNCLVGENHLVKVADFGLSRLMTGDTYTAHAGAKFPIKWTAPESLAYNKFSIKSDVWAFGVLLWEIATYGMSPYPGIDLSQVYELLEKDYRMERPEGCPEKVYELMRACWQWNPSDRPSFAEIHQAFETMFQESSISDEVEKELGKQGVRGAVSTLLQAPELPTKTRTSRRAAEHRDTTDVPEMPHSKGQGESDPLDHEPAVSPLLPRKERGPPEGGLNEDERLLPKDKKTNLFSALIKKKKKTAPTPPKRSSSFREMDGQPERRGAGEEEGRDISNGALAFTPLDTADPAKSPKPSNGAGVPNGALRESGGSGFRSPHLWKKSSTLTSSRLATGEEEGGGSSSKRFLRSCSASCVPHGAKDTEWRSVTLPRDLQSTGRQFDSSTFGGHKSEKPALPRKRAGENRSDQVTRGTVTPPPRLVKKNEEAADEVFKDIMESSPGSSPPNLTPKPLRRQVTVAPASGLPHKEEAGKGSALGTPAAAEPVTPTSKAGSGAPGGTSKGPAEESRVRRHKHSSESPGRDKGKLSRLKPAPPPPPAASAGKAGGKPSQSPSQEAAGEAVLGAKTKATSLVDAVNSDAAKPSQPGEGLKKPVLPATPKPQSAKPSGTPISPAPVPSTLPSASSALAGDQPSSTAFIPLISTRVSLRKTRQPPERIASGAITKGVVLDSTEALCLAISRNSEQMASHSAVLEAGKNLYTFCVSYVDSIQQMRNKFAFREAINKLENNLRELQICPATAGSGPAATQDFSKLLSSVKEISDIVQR
DDR2, sequence (Q16832 22-855): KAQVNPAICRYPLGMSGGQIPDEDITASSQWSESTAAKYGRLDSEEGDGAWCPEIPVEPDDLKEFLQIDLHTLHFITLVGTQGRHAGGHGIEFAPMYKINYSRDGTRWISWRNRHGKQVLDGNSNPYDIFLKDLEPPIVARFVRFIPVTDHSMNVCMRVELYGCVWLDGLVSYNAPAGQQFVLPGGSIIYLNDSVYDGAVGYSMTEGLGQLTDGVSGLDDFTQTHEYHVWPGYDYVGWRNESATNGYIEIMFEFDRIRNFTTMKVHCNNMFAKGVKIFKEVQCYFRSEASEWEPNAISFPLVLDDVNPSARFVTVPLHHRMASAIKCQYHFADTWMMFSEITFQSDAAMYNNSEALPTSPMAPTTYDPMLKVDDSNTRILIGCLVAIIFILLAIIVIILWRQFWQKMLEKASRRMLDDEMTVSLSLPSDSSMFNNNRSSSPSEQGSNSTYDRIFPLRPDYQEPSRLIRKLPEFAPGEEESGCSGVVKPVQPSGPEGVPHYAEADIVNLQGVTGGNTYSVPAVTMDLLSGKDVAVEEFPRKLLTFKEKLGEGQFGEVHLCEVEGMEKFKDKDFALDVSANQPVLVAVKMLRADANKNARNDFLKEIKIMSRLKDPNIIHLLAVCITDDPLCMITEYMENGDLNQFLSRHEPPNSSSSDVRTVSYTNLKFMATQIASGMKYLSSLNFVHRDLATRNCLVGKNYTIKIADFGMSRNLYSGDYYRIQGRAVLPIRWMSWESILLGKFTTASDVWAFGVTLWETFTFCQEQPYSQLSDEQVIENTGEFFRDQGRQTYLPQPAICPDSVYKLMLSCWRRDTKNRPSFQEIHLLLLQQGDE
DDR1, sequence (Q08345 19-913): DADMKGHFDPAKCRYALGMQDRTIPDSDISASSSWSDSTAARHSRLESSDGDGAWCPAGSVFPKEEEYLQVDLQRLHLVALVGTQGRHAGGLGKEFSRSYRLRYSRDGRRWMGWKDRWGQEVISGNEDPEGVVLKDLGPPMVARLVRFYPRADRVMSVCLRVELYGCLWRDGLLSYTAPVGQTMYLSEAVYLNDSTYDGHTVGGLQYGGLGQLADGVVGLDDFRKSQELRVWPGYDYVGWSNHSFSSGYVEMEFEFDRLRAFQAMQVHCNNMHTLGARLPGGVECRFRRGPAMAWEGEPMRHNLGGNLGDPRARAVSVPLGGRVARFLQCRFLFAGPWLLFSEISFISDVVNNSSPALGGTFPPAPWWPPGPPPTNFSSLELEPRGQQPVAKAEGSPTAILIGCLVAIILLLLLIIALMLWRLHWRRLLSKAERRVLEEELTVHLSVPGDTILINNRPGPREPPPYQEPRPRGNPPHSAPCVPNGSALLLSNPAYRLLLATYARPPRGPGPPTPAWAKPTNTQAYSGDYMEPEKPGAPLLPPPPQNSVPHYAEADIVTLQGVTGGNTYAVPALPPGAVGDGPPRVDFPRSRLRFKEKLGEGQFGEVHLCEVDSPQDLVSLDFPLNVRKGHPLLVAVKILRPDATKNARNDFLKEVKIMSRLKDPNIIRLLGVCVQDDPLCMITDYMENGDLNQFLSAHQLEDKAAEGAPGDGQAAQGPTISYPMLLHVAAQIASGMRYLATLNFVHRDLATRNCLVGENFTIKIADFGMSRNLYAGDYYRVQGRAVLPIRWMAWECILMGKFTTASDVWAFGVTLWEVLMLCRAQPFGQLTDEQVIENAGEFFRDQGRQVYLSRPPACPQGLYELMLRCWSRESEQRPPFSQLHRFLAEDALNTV

A word on the IC50: it is the midpoint of a concentration-inhibition curve. Read a high IC50 as a need for much substance. Regarding `CN1CCN(Cc2cc(NC(=O)c3ccc4c(c3)CN(c3cncnc3)CC4(C)C)cc(C(F)(F)F)c2)CC1` [Example 7, 4,4-dimethyl-N-(3-((4-methylpiperazin-1-yl)methyl)-5-(trifluoromethyl)phenyl)-2-(pyrimidin-5-yl)-1,2,3,4-tetrahydroisoquinoline-7-carboxamide], the concentration for half-maximal inhibition (IC50) at DDR1 is 223 nM; at DDR2 (cells printed in μM), 4.5 µM; against Bcr-Abl it was > 10 µM; against c-Kit, > 10 µM.
On to `CC1CN(c2cncnc2)Cc2cc(C(=O)Nc3cc(CCN4CCN(C)CC4)cc(C(F)(F)F)c3)ccc21` (centres unmarked) [Example 10, 4-methyl-N-(3-(2-(4-methylpiperazin-1-yl)ethyl)-5-(trifluoromethyl)phenyl)-2-(pyrimidin-5-yl)-1,2,3,4-tetrahydroisoquinoline-7-carboxamide], for which the IC50 is 36.7 nM at DDR1, 0.449 µM at DDR2 (cells without unit), > 10 µM on Bcr-Abl and > 10 µM on c-Kit.
Take `CC1CN(c2cncnc2)Cc2cc(C(=O)Nc3cc(N4CCN(C)CC4)cc(C(F)(F)F)c3)ccc21` (centres unmarked) [Example 11]: the IC50 against DDR1 was 132 nM; at DDR2 (cells printed in μM) it was 2.2 µM; at Bcr-Abl it was > 10 µM; against c-Kit it was > 10 µM.
On to `CC1CN(c2cncnc2)Cc2cc(C(=O)Nc3cccc(C(F)(F)F)c3)ccc21` (centres unmarked) [Example 13, 4-methyl-2-(pyrimidin-5-yl)-N-(3-(trifluoromethyl)phenyl)-1,2,3,4-tetrahydroisoquinoline-7-carboxamide], for which the IC50 is 191 nM on DDR1, 10 µM at DDR2 (cells printed in μM), > 10 µM against Bcr-Abl and > 10 µM against c-Kit.
As to `CC1CN(c2cncnc2)Cc2cc(C(=O)Nc3cc(CN4CCCN(C)CC4)cc(C(F)(F)F)c3)ccc21` (centres unmarked) [Example 14, 4-methyl-N-(3-((4-methyl-1,4-diazepan-1-yl)methyl)-5-(trifluoromethyl)phenyl)-2-(pyrimidin-5-yl)-1,2,3,4-tetrahydroisoquinoline-7-carboxamide], the concentration for half-maximal inhibition (IC50) is 25.6 nM against DDR1, 0.604 µM against DDR2 (cells without unit), > 10 µM against Bcr-Abl and > 10 µM at c-Kit.
For the compound `CCc1cc(CN2CCN(C)CC2)cc(NC(=O)c2ccc3c(c2)CN(c2cncnc2)CC3C)c1` (centres unmarked) [Example 15, N-(3-ethyl-5-((4-methylpiperazin-1-yl)methyl)phenyl)-4-methyl-2-(pyrimidin-5-yl)-1,2,3,4-tetrahydroisoquinoline-7-carboxamide], the IC50 was 50.5 nM against DDR1, 1.4 µM at DDR2 (cells printed in μM), > 10 µM against Bcr-Abl and > 10 µM against c-Kit.
On to `CC(C)c1cc(CN2CCN(C)CC2)cc(NC(=O)c2ccc3c(c2)CN(c2cncnc2)CC3C)c1` (centres unmarked) [Example 16, N-(3-isopropyl-5-((4-methylpiperazin-1-yl)methyl)phenyl)-4-methyl-2-(pyrimidin-5-yl)-1,2,3,4-tetrahydroisoquinoline-7-carboxamide], for which the IC50 is 35.7 nM against DDR1, 0.647 µM against DDR2 (cells without unit), 7.2 µM against Bcr-Abl and > 10 µM against c-Kit.
On to `CCN1CCN(Cc2cc(NC(=O)c3ccc4c(c3)CN(c3cncnc3)CC4C)cc(C(F)(F)F)c2)CC1` (centres unmarked) [Example 17, N-(3-((4-ethylpiperazin-1-yl)methyl)-5-(trifluoromethyl)phenyl)-4-methyl-2-(pyrimidin-5-yl)-1,2,3,4-tetrahydroisoquinoline-7-carboxamide], for which the IC50 at DDR1 is 39.1 nM; against DDR2 (cells without unit), 0.527 µM; at Bcr-Abl, > 10 µM; at c-Kit, > 10 µM.
With `CC1CN(c2cncnc2)Cc2cc(C(=O)Nc3cc(CN4CCOCC4)cc(C(F)(F)F)c3)ccc21` (centres unmarked) [Example 18, 4-methyl-N-(3-(morpholinomethyl)-5-(trifluoromethyl)phenyl)-2-(pyrimidin-5-yl)-1,2,3,4-tetrahydroisoquinoline-7-carboxamide], the IC50 is 193 nM against DDR1, 4.5 µM on DDR2 (cells printed in μM), > 10 µM on Bcr-Abl and > 10 µM on c-Kit.
For `CC1CN(c2cncnc2)Cc2cc(C(=O)Nc3cc(CN4CCCCC4)cc(C(F)(F)F)c3)ccc21` (centres unmarked) [Example 19, 4-methyl-N-(3-(piperidin-1-ylmethyl)-5-(trifluoromethyl)phenyl)-2-(pyrimidin-5-yl)-1,2,3,4-tetrahydroisoquinoline-7-carboxamide], the IC50 was 166 nM against DDR1, 2.2 µM against DDR2 (cells printed in μM), > 10 µM at Bcr-Abl and > 10 µM at c-Kit.
Take `CC1CN(c2cncnc2)Cc2cc(C(=O)Nc3cc(CN4CCCC4)cc(C(F)(F)F)c3)ccc21` (centres unmarked) [Example 20, 4-methyl-2-(pyrimidin-5-yl)-N-(3-(pyrrolidin-1-ylmethyl)-5-(trifluoromethyl)phenyl)-1,2,3,4-tetrahydroisoquinoline-7-carboxamide]: the IC50 is 222 nM against DDR1, 2.3 µM on DDR2 (cells printed in μM), > 10 µM at Bcr-Abl and > 10 µM against c-Kit.
Consider `CC1CN(c2cncnc2)Cc2cc(C(=O)Nc3cc(CN(C)C)cc(C(F)(F)F)c3)ccc21` (centres unmarked) [Example 21, N-(3-((dimethylamino)methyl)-5-(trifluoromethyl)phenyl)-4-methyl-2-(pyrimidin-5-yl)-1,2,3,4-tetrahydroisoquinoline-7-carboxamide], for which the IC50 was 254 nM on DDR1, 6.7 µM against DDR2 (cells printed in μM), > 10 µM at Bcr-Abl and > 10 µM at c-Kit.
Turning to `CC1CN(c2cncnc2)Cc2cc(C(=O)Nc3cc(CN4CCN(C)CC4)cc(C4CCCCC4)c3)ccc21` (centres unmarked) [Example 22, N-(3-cyclohexyl-5-((4-methylpiperazin-1-yl)methyl)phenyl)-4-methyl-2-(pyrimidin-5-yl)-1,2,3,4-tetrahydroisoquinoline-7-carboxamide], the IC50 on DDR1 was 71.6 nM; against DDR2 (cells without unit) it was 0.457 µM; against Bcr-Abl, > 10 µM; against c-Kit, > 10 µM.
For the compound `CC1CN(c2cncnc2)Cc2cc(C(=O)Nc3cc(CN4CCN(C)CC4)cc(-c4ccccc4)c3)ccc21` (centres unmarked) [Example 29, 4-methyl-N-(5-((4-methylpiperazin-1-yl)methyl)biphenyl-3-yl)-2-(pyrimidin-5-yl)-1,2,3,4-tetrahydroisoquinoline-7-carboxamide], the results for the IC50 against DDR1, against DDR2 (cells printed in μM) and at c-Kit were 44.6 nM, 1.4 µM and > 10 µM, respectively.
Take `CC1Cc2ccc(C(=O)Nc3cc(CN4CCN(C)CC4)cc(C(F)(F)F)c3)cc2CN1c1cncnc1` (centres unmarked) [Example 30, 3-methyl-N-(3-((4-methylpiperazin-1-yl)methyl)-5-(trifluoromethyl)phenyl)-2-(pyrimidin-5-yl)-1,2,3,4-tetrahydroisoquinoline-7-carboxamide]: the IC50 against DDR1 is 544 nM; at DDR2 (cells printed in μM) it was 7.6 µM; against Bcr-Abl, > 10 µM; against c-Kit it was > 10 µM.
As to `CC1CN(c2cncnc2)Cc2cc(C(=O)Nc3cc(CN4CCN(C)CC4)cc(C4CC4)c3)ccc21` (centres unmarked) [Example 31, N-(3-cyclopropyl-5-((4-methylpiperazin-1-yl)methyl)phenyl)-4-methyl-2-(pyrimidin-5-yl)-1,2,3,4-tetrahydroisoquinoline-7-carboxamide], the IC50 at DDR1 was 89 nM; against DDR2 (cells printed in μM) it was 1.1 µM; on c-Kit it was > 10 µM.
